Data from PMC10931745 (International Journal of Molecular Sciences, 2024).

Columns and labels:
[1] = ABTS radical scavenging assay; format: biochemical
Outline: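 Complexes tested at 5, 10, 25, 50 and 100 µg/mL against ABTS radical cation; absorbance at 730 nm. Scavenging expressed as percent inhibition versus control, IC50 derived from %IABTS.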

[2] = test system: Klebsiella pneumoniae (ATCC 13883); assay: MIC/MBC broth dilution; format: cell-based
Outline: (§1)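 Broth dilution per CLSI; complexes at 50, 70, 100, 150 and 200 µg/mL incubated with bacteria overnight at 37 °C, growth read at 600 nm. MIC/MBC (µg/mL) assigned against vehicle (DMSO) control in LB; three independent experiments in triplicate.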

[3] = test system: Escherichia coli (ATCC 25922); assay: MIC/MBC broth dilution; format: cell-based
Outline: as §1

[4] = test system: ROS production in BALB/3T3 fibroblasts; assay: Intracellular ROS detection with DCFH2-DA; format: cell-based, murine; details: 25 µM, 24 h pre-treatment
Experimental: In vitro detection of intracellular ROS on fibroblasts BALB/3T3 using DCFH2-DA The assay to evaluate the in vitro antioxidant activity was carried out using the murine BALB/3T3 fibroblasts that were plated in a white 96 MW and then treated with the complexes at a concentration of 25 µM for 24 h. Menadione (25 µM) was then added for 15 min to induce ROS production. After treatment, the cells were washed with PBS and treated with 25 μM 2′-7′-dichlorofluorescein diacetate (DCFH2-DA, Sigma-Aldrich, St. Louis, MO, USA), and then they were incubated for 40 min at 37 °C and 5% CO2. The probe DCFH2-DA penetrates cells where it is […] into a non-fluorescent form (DCFH2) by endogenous esterases. In the presence of intracellular ROS, non-fluorescent H2DCF is oxidized to the fluorescent 2′,7′-dichlorofluorescein (DCF). Then, the cells were washed with PBS and the fluorescence was detected using a multiplate reader (λex = 485 nm, λem = 535 nm). Based on the obtained fluorescence values, the ROS production inhibition % (IROS) vs. menadione was calculated using the following formula:(1) IROS vs. Menadione (%)=FMen−FSample/FMen∗100 where FMen represents the mean fluorescence obtained after treatment with menadione alone and Fsample represents the mean fluorescence obtained after the co-treatment with the complexes and menadione.

MDA-MB-231 = assay: MTT cell viability assay; format: cell-based, human; details: 72 h
Outline: (§2)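 Cancer lines MCF-7 and MDA-MB-231 and non-tumour MCF-10A cells were treated 72 h with compound at 0.1–500 µM. Viability read by MTT; IC50 calculated from percent of untreated control.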

MCF-7 = assay: MTT cell viability assay; format: cell-based, human; details: 72 h
Outline: as §2

[5] = test system: NO production in LPS-stimulated RAW 264.7 macrophages; assay: Griess assay, NO production; format: cell-based, murine; details: 25 µM, LPS 1 µg/mL, 24 h
Experimental: The Griess assay was performed using RAW 264.7 murine macrophages to study the anti-inflammatory activity in terms of NO production. RAW 264.7 cells were plated in the 48 multi-wells and, after 24 h, treated with the tested molecules (25 µM) and the lipopolysaccharide (LPS, Sigma Aldrich, Milan, Italy) at a final concentration of 1 µg/mL. LPS is able to induce inflammation by stimulating NO production in immune system cells such as macrophages. After 24 h, the cell medium Griess reagent (Sigma Aldrich, Milan, Italy) was mixed in with a ratio of 1:1. The Griess reagent allowed for the quantification of NO released by macrophages in the treatment medium. The mixture was left for 30 min under agitation and, subsequently, the absorbance at 540 nm was measured using a multiplate reader. The obtained absorbance allowed us to calculate the NO production % compared to the absorbance obtained for the positive control, in which the cells were treated with LPS.

[6] = test system: Staphylococcus aureus (ATCC 23235); assay: MIC/MBC broth dilution; format: cell-based
Outline: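 Broth dilution per CLSI in 96-well plates: complexes at 50, 70, 100, 150 and 200 µg/mL with bacteria, 37 °C overnight. Growth read at 600 nm; MIC/MBC (µg/mL) assigned against vehicle (DMSO) growth control in LB medium. Three independent experiments in triplicate.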

[7] = test system: NF-κB localization in MDA-MB-231 cells; assay: Immunofluorescence, NF-κB localization; format: cell-based, human; details: 15 µM
Experimental: After a PBS wash, cells were fixed using cold methanol (15 min at −20 °C) and incubated overnight at 4 °C with the primary antibodies raised against NF-κB, iNOS, TNF-α, and COX-1 and 2 (Santa Cruz Biotechnology Inc., Santa Cruz, CA, USA) diluted in BSA 2%, as previously described. […] DAPI (Sigma Aldrich, Milan, Italy) 0.2 µg/mL was added for 10 min for nuclei counterstaining. A fluorescence microscope (Leica DM 6000) was used for visualizing images, and LAS-X software 3.5.7.23225 was used for acquisition and processing.

With Cn1c(=O)c2c(n(C)[c]([Au-][I])[n+]2CC(O)c2ccccc2)n(C)c1=O (racemic) [AuL1, 1,3,7-Trimethylxanthin-9-[(2-hydroxy-2-phenyl)ethyl-8-ylidene]Au(I) Iodide] the IC50 [1] was 161 ± 1 µM, the “M.B.C. K. pneumoniae” value [2] was > 200 µg/mL and the “M.I.C. K. pneumoniae” value [2] was 150 µg/mL. The “M.B.C. E. coli” value [3] was > 200 µg/mL, the “M.I.C. E. coli” value [3] was 150 µg/mL and the “ROS level reduction vs. menadione” value [4] was “approximately 69%”. The IC50 (MDA-MB-231) was 14.7 ± 1.1 µM, the IC50 (MCF-7) was 73.8 ± 1.1 µM and the “Reduction in NO production” value [5] was ~6.23%. For the same molecule, the “M.B.C. S. aureus” value [6] was > 200 µg/mL, the “M.I.C. S. aureus” value [6] was 150 µg/mL and the NF-κB intracellular localization [7] was “prevalently located in the cytoplasm”.
With CC(=O)[O][Ag-][c]1n(C)c2c(c(=O)n(C)c(=O)n2C)[n+]1C1CCCCC1O (stereo not drawn) [AgL2OAc, 1,3,7-Trimethylxanthin-9-[cyclohexan-2-ol-8-ylidene]Ag(I) Acetate] the IC50 [1] was 145.4 ± 1.1 µM, the “M.B.C. K. pneumoniae” value [2] was > 150 µg/mL and the “M.I.C. K. pneumoniae” value [2] was 125 µg/mL. The “M.B.C. E. coli” value [3] was > 150 µg/mL, the “M.I.C. E. coli” value [3] was 100 µg/mL and the “ROS level reduction vs. menadione” value [4] was ~59%. The IC50 (MDA-MB-231) was 19.4 ± 1 µM, the IC50 (MCF-7) was 28.7 ± 1 µM and the “Reduction in NO production” value [5] was “about 5.20%”. For the same molecule, the “M.B.C. S. aureus” value [6] was > 150 µg/mL, the “M.I.C. S. aureus” value [6] was 100 µg/mL and the NF-κB intracellular localization [7] was “prevalently located in the cytoplasm”.
